From US11045411B2, “Process for treating keratin materials using amide, acid or ester c-glycoside derivatives, and cosmetic composition containing same” (L'OREAL, priority 2015, dated 2021)
“And” between values parts separate entries of the source, which are not always exact repeats. Equal values may be shown once.

Key:
GLUT-1 = GLUT-1 expression in normal human keratinocytes by immuno labeling; type: cell-based; details: for GLUT-1 expression vs 100% control: 48 hours, n=3; for expression of the GLUT-1 protein: result in words
Experimental: Normal human keratinocytes (NHKs) were seeded and cultured in culture medium for 24 hours and then in test medium for a further 24 hours. After incubation, the medium was replaced with test medium containing or not containing (control) the test compounds or the references, and then the cells were incubated for 48 hours. All the experimental conditions were performed in n=3. After incubation, the culture medium was removed and the cells were rinsed, fixed and permeabilized. GLUT-1 expression was determined by immuno labeling.

[1] = test system: normal human epidermal keratinocytes; test: Synthesis of total glycosaminoglycans, [3H]-glucosamine incorporation in normal human epidermal keratinocytes; type: cell-based; details: for % relative to control, glucosamine incorporation / Mean value, radioactive glucosamine incorporated: 72 hours; for incorporation of radioactive glucosamine: result in words
Experimental: The study is carried out by measuring the incorporation of radioactive glucosamine into the matrix neosynthesized by cultures of normal human epidermal keratinocytes. The incorporation of radioactive [^3H]-glucosamine indicates a specific neosynthesis of total glycosaminoglycans.
The test is carried out on a culture of normal human epidermal keratinocytes in a 96-well plate and cultured in culture medium for 24 hours:
Culture medium: Keratinocytes-SFM supplemented with 0.5 ng/ml epidermal growth factor (EGF), 25 μg/ml pituitary extract, 25 μg/ml gentamycin.
Culture conditions: 37° C.; 5% CO2
The medium was then replaced with culture medium containing or not containing (control) the compound (I) tested or the references 4-nitrophenyl-B-D-xylopyranoside (tested at 300 μM) and 4-methylumbelliferyl-B-D-xylopyranoside (tested at 54 μM) or the solvent control (DMSO at 0.1%), then the cells were incubated for 72 hours with addition of the [^3H]-glucosamine label for the final 24 hours of incubation.
The test was carried out with 3 assays for each compound tested, at the concentrations of 1, 10, 100 and 300 μM.
At the end of the incubation, the glycosaminoglycans were extracted from the cells with a chaotropic buffer. The level of radioactive glucosamine incorporated is measured at the end of the test by adsorption of the anionic molecules on Q-sepharose beads, followed by desorption of the molecules having low and medium anionicity with 6M urea plus 0.2 M NaCl. Once washed, the radioactivity incorporated into the very […] molecules remaining on the support is counted.
The results were evaluated relative to a control constituted of cells which had not been treated with the compound (I).
A positive control (TGFβ at 0.25 ng/ml) known to stimulate GAG synthesis was introduced into the test carried as a positive reference.

| SMILES | GLUT-1 expression vs 100% control (GLUT-1; Reference 2 mM metformine) | % relative to control, glucosamine incorporation ([1]; 1 μM) | Mean value, radioactive glucosamine incorporated ([1]; 1 μM) | % relative to control, glucosamine incorporation ([1]; 10 μM) | Mean value, radioactive glucosamine incorporated ([1]; 10 μM) | % relative to control, glucosamine incorporation ([1]; 100 μM) | Mean value, radioactive glucosamine incorporated ([1]; 100 μM) | % relative to control, glucosamine incorporation ([1]; 300 μM) | Mean value, radioactive glucosamine incorporated ([1]; 300 μM) | incorporation of radioactive glucosamine ([1]; concentration of 10 μM) | incorporation of radioactive glucosamine ([1]; concentration of 1 μM) | % relative to control, glucosamine incorporation ([1]; 54 μM) | Mean value, radioactive glucosamine incorporated ([1]; 54 μM) | incorporation of radioactive glucosamine ([1]; concentration of 100 μM) | incorporation of radioactive glucosamine ([1]; concentration of 300 μM) | GLUT-1 expression vs 100% control (GLUT-1; compound at 10 μM) | expression of the GLUT-1 protein (GLUT-1) |
| --- | --- | --- | --- | --- | --- | --- | --- | --- | --- | --- | --- | --- | --- | --- | --- | --- | --- |
| CN(C)C(=N)N=C(N)N [metformine, reference compound] | 252% (p < 0.01) and 296% (p < 0.001) | – | – | – | – | – | – | – | – | – | – | – | – | – | – | – | – |
| CNC(=O)C(O)C1O[C@H](CO)[C@@H](O)[C@H](O)[C@@H]1O (stereo partly shown) [Compound 13] | – | 119% | 16090 cpm | 129% | 17340 cpm | 134% | 18139 cpm | 139% | 18804 cpm | stimulate the incorporation of radioactive glucosamine | – | – | – | – | – | – | – |
| CNC(=O)C(O)C1OC[C@@H](O)[C@H](O)[C@H]1O (stereo partly shown) [Compound 5] | – | 134% | 17792 cpm | 121% | 16133 cpm | 119% | 15835 cpm | 116% | 15495 cpm | – | stimulate the incorporation of radioactive glucosamine | – | – | – | – | – | – |
| O=[N+]([O-])c1ccc(O[C@@H]2OC[C@@H](O)[C@H](O)[C@H]2O)cc1 [4-nitrophenyl β-D-xylopyranoside, 4-nitrophenyl-B-D-xylopyranoside, reference compound] | – | – | – | – | – | – | – | 207% | 31280 cpm | – | – | – | – | – | – | – | – |
| Cc1cc(=O)oc2cc(O[C@@H]3OC[C@@H](O)[C@H](O)[C@H]3O)ccc12 [4-methylumbelliferyl-β-D-xylopyranoside, 4-methylumbelliferyl-B-D-xylopyranoside, reference compound] | – | – | – | – | – | – | – | – | – | – | – | 213% | 32202 cpm | – | – | – | – |
| CNC(=O)C(O)C1O[C@H](CO)[C@H](O)[C@H](O)[C@H]1O (stereo partly shown) [Compound 17] | – | 129% | 17387 cpm | 123% | 16614 cpm | 132% | 17861 cpm | 108% | 14498 cpm | stimulates the incorporation of radioactive glucosamine | stimulates the incorporation of radioactive glucosamine | – | – | stimulates the incorporation of radioactive glucosamine | – | – | – |
| CNC(=O)C(O)C1O[C@@H](C)[C@H](O)[C@@H](O)[C@H]1O (stereo partly shown) [Compound 9] | – | 120% | 16162 cpm | 114% | 15439 cpm | 131% | 17655 cpm | 169% | 22845 cpm | – | – | – | – | – | stimulates the incorporation of radioactive glucosamine | – | – |
| CCCNC(=O)C(O)C1O[C@H](CO)[C@@H](O)[C@H](O)[C@H]1O (stereo partly shown) [Compound 2] | – | 110% | 14638 cpm | 126% | 16779 cpm | 123% | 16435 cpm | 127% | 16929 cpm | stimulate the incorporation of radioactive glucosamine | – | – | – | – | – | – | – |
| CNC(=O)C(O)C1O[C@H](CO)[C@@H](O)[C@H](O)[C@H]1O (stereo partly shown) [Compound 1] | – | 125% | 21591 cpm | 117% | 20216 cpm | 118% | 20451 cpm | 97% | 16850 cpm | – | stimulate the incorporation of radioactive glucosamine | – | – | – | – | 159% (p < 0.05) | very significantly stimulated |
| CNC(=O)C(O)C1O[C@H](CO)[C@@H](OC2O[C@H](CO)[C@H](O)[C@H](O)[C@H]2O)[C@H](O)[C@H]1O (stereo partly shown) [Compound 21] | – | 142% | 18416 cpm | 136% | 17611 cpm | 137% | 17796 cpm | 134% | 17429 cpm | stimulates the incorporation of radioactive glucosamine | stimulates the incorporation of radioactive glucosamine | – | – | – | stimulates the incorporation of radioactive glucosamine | – | – |
| CCCCCCCCCCCCCCNC(=O)C(O)C1O[C@H](CO)[C@@H](O)[C@H](O)[C@H]1O (stereo partly shown) [Compound 4] | – | – | – | – | – | – | – | – | – | – | – | – | – | – | – | 142% (p < 0.01) | very significantly stimulated |
